Reference: US20260297083A1, “SUBSTITUTED ACETYLENE COMPOUND DERIVATIVES AND THEIR PHARMACEUTICAL USE” (AVELOS THERAPEUTICS INC., priority 2023, published 2026)

test system: DLD-1 BRCA2(−/−) Cell; experiment: Cell viability assay (Resazurin) in DLD1-BRCA2 cells; assay type: cell-based; conditions: Homo sapiens, DLD-1, 336 h, 14 days, 1,500 cells/well, final DMSO 1%
Outline: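 DLD1-BRCA2 KG cells seeded at 1,500/well (parental 600/well) in RPMI-1640 with 10% FBS, compound added after 4 h (1% DMSO), media replaced every 3-4 days over 14 days at 37° C. Viability read by resazurin (0.1 mg/ml, 4 h) fluorescence at Ex/Em 560/590 nm; IC50 fitted.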

| IC50 [nM] | Compound |
| --- | --- |
| 1100 to 5000 | Cc1cc(C(F)(F)F)cc(N2C(=O)CC[C@H]2C(=O)N(CC#CCN2CCN(c3ncccn3)CC2)c2ccc(F)c(C)c2F)n1 [Example 16, (S)—N-(2,4-difluoro-3-methylphenyl)-1-(6-methyl-4-(trifluoromethyl)pyridin-2-yl)-5-oxo-N-(4-(4-(pyrimidin-2-yl)piperazin-1-yl)but-2-yn-1-yl)pyrrolidine-2-carboxamide] |
| < 1000 | Cc1cc(C(F)(F)F)cc(N2[C@H](C(=O)N(CC#Cc3cncc(N4CCOCC4)n3)c3ccc(F)c(C)c3)CCS2(=O)=O)n1 [Example 42, (S)-N-(4-fluoro-3-methylphenyl)-2-(6-methyl-4-(trifluoromethyl)pyridin-2-yl)-N-(3-(6-morpholinopyrazin-2-yl)prop-2-yn-1-yl)isothiazolidine-3-carboxamide 1,1-dioxide] |
| 1100 to 5000 | Cc1ccc(F)c(N(CC#Cc2cnc(N3CCOCC3)cn2)C(=O)[C@@H]2CCS(=O)(=O)N2c2cc(C(F)(F)F)cc(C)n2)c1 [Example 40, (S)-N-(2-fluoro-5-methylphenyl)-2-(6-methyl-4-(trifluoromethyl)pyridin-2-yl)-N-(3-(5-morpholinopyrazin-2-yl)prop-2-yn-1-yl)isothiazolidine-3-carboxamide 1,1-dioxide] |
